In experiment [1] the test system is LN229 MGMT+ MMR+ cells. The experiment in a line: Anticancer activity towards LN229 human brain glioblastoma cells (nuclei count after 120 hours). It is filed as cell-based. The settings on record: LN-229, LN229 quad cells, 200 μM to 0.1 uM. As to the method: (§1) Exemplary compounds were evaluated for activity against LN229 human brain glioblastoma cells. Experimental procedures and results are provided elsewhere herein.
(§2) LN229 quad cells were maintained in Dulbecco's Modified Eagle Medium (DMEM) supplemented with 10% fetal bovine serum. Cells were plated into sterile black with glass bottom 384-well plates (Cellvis) at a concentration of 1,000 cells/well (20 μL total volume) using a MultiDrop (Thermo Fisher). Then, assay plates were centrifuged at 300 rpm for 2 seconds and incubated overnight in a 37° C. 5% CO2 incubator. Compounds were prepared as 100 mM stocks in DMSO and stored protected from light at −20′C until use. Prior to compound addition, the stock solutions of compound were diluted two-fold serially in DMSO from 100 mM down to 0.05 mM in a 384-well Source plate. Vehicle control wells containing DMSO and positive control wells containing 10 mM bortezomib were also added to the Source plate. An aliquot in the amount of 40 nL of compound stock solution or DMSO vehicle was transferred from the source plate to the cell assay plate using an Echo Acoustic dispense (Beckman). Three replicate dilution curves of each compound were run on each assay plate. An aliquot in the amount of 120 nL of a 10 mM bortezomib solution was transferred to the positive control wells resulting in a final concentration of 60 μM. The final concentration of compounds ranged from 200 μM to 0.1 uM (12-point, 2-fold dilution dose response curve), and the final DMSO concentration was 0.2%.
(§3) Assay plates were centrifuged at 500 rpm for 2 seconds and incubated for 120 hours at 37° C. in a humidified 5% CO2 incubator. Following incubation, cells were fixed with 4% paraformaldehyde and stained with DAPI for nuclei visualization. The images were acquired on the InCell 2200 high content imager (GE, now […]), and quantified using InCell Analyzer image analysis software. Z prime factor, signal-to-background and coefficient of variation were calculated for each assays plate using mean and standard deviation values of the negative (vehicle) and positive (bortezomib) control wells to ensure assay robustness. Raw cell count data for test compounds was normalized to percent viability relative to the DMSO vehicle control. Data was plotted in GraphPad Prism using a variable slope 4-parameter fit.

Experiment [2] concerns LN229 MGMT+ MMR− cells. Described as above. It is filed as cell-based. As to conditions: LN-229, LN229 quad cells, 200 μM to 0.1 uM. As to the method:
as §1, §2, §3

The subject of experiment [3] is PD20 cells, FANCD2−/− or +FANCD2. Kind of experiment: Short-term cell viability assay in FANCD2 model. It is filed as cell-based, human. As to conditions: PD20 FANCD2−/− versus +FANCD2. As to the method: FIGS. Z4A-Z4I. KL-50 (4a) activates DNA damage response pathways and cycle arrest in MGMT− cells, independent of MMR, and induces sensitivity in cells deficient in ICL or HR repair. (FIGS. Z4A, Z4B, and Z4C) Phospho-SER139-H2AX (γH2AX) (A), 53BP1 (FIG. Z4B), and phospo-SER33-RPA2 (pRPA) (FIG. Z4C) foci formation quantified by % cells with 10 foci in LN229 MGMT+/−, MMR+/− cells treated with 0.1% DMSO control, 20 μM KL-50 (4a), or 20 μM TMZ (1a) for 48 h. Columns, mean; error bars, SD; n≥5 technical replicates. Additional time course data is presented in FIG. ZS6B to D. (FIG. Z4D) Representative foci images of data in (FIG. Z4A) to (FIG. Z4C). (FIG. Z4E) Percentage of cells in G1, S, and G2 cell cycle phases after treatment as in (A) to (C), measured using integrated nuclear (Hoechst) staining intensity. Columns, mean; error bars, SD; n=3 independent analyses. (FIG. Z4F) Change in percent cells with 1 micronuclei from baseline (DMSO control) after treatment as in (FIG. Z4A) to (FIG. Z4C). Columns, mean; error bars, SD; […] technical replicates; **** p<0.0001; ns, not significant. Additional validation is presented in FIG. ZS9, A and B. (FIG. Z4G) Short-term viability assay curves for KL-50 (4a) in PD20 cells, deficient in FANCD2 (FANCD2−/−) or complemented with FANCD2 (+FANCD2). (FIG. Z4H) Short-term viability assay curves for KL-50 (4a) in PEO4 (BRCA2+) and PEO1 (BRCA2−/−) cells pre-treated with 0.01% DMSO control or 10 μM O^6BG (+O^6BG) for 1 h prior to KL-50 (4a) addition. (FIG. Z4I) Short-term viability assay curves for KL-50 (4a) in DLD1 BRCA2+/− and BRCA2−/− cells pre-treated with 0.01% DMSO control or 10 μM O^6BG (+O^6BG) for 1 h prior to KL-50 (4a) addition. For (FIG. Z4G), (FIG. Z4H), and (FIG. Z4I), points, mean; error bars, SD; n=3 technical replicates.
Short-term Cell Viability Assay. Cells were seeded in 96-well plates at 1000 or 2000 cells/well and allowed to adhere at 23° C. for 60 min and then incubated overnight at 37° C. […] Cells were imaged on a Cytation 3 imaging reader (BioTek) and quantified using CellProfiler software.

Experiment [4] deals with O^6-guanine adducts in cellular DNA. As to conditions: dose of 20 μM; cited from earlier work.

Usually IC50 stands for the concentration at which inhibition is half-maximal. Low readings indicate higher potency, high ones lower potency. Regarding `CNC(=O)c1ncn2c(=O)n(CCF)nnc12` [Compound I-1, 3-(2-fluoroethyl)-N-methyl-4-oxo-3H,4H-imidazo[4,3-d][1,2,3,5]tetrazine-8-carboxamide], the IC50 in experiment [1] and in experiment [2] was over 80 µM each time.

Consider `NC(=O)c1ncn2c(=O)n(CCF)nnc12` [KL-50, 3-(2-fluoroethyl)-4-oxo-3H,4H-imidazo[4,3-d][1,2,3,5]tetrazine-8-carboxamide], for which the “sensitivity of FANCD2-deficient cells (in words)” value in experiment [3] is “hypersensitive”.

Regarding `Cn1nnc2c(C(N)=O)ncn2c1=O` [TMZ, temozolomide, reference compound], the “O^6MeG (3) adducts per cell” value in experiment [4] was 20,600.

Values taken from patent US20240400572A1, “COMPOUNDS AND METHODS FOR TREATING CANCERS THAT ARE MGMT DEFICIENT REGARDLESS OF MMR STATUS” (Yale University, priority 2021, published 2024).
